Experimental data published in patent US20250154197A1, “LIPOLYTIC PEPTIDES” (FUNDACIÓ HOSPITAL UNIVERSITARI VALL D'HEBRON - INSTITUT DE …, priority 2021, published 2025).
Where no end group is shown, it is not given here. [ ]: non-standard residue; d: D form.

How the values were obtained:
Assay type in all cases: cell-based
[1] = system: 3T3-L1 mouse adipocytes; assay: Lipolytic activity: glycerol release in differentiated 3T3-L1 mouse adipocytes (12 h); conditions: for Lipolysis Activity measured as Glycerol (μM) release in media: 3T3-L1 mouse adipocytes, 12 h
Method: JCRB9014-A) from Tebu-Bio (Tebu-bio, Barcelona, Spain). Briefly, mouse adipocytes (3T3-L1 cells) were cultured in 48 well plates as described previously (Saez-Lopez et al., 2020). Adipocytes were differentiated using cell culture reagents purchased from Tebu-Bio and following the manufacturer's instructions. At day of differentiation cells were treated in duplicates with vehicle (DMSO), Caffeine (100 μg/ml), and each of the peptides at the specified doses in Table 6a below. At the end of the experiment (12 h), supernatants were collected and glycerol content was measured using a Glycerol Assay Kit (Sigma) following manufacturer's instructions.

[2] = system: human subcutaneoous mature adipocytes; assay: Lipolytic activity: glycerol release in human adipocytes (Lipolysis Assay kit); conditions: human subcutaneous mature adipocytes
[3] = system: differentiated human subcutaneous adipocytes; assay: Time course lipolytic activity: glycerol release at 120' and 240'; conditions: for Lipolytic activity measured as glycerol release: 10 ug/ml, human subcutaneous adipocytes
Method: At the end of the experiment, supernatants were collected and glycerol content was measured using a Lipolysis Assay kit from Tebu-bio (LIP-1—NC) following the manufacturer's instructions.

Row | Compound | Lipolysis Activity measured as Glycerol (μM) release in media ([1]; 100 μg/ml) | Lipolysis Activity measured as Glycerol (μM) release in media ([2]; 100 μg/ml) | lipolytic activity at 120' ([3]; 120', 10 μg/ml) | Lipolytic activity measured as glycerol release ([3]; 120 min) | Lipolytic activity measured as glycerol release ([3]; 240 min) | Lipolysis Activity measured as Glycerol (μM) release in media ([1]; 1 μg/ml) | Lipolysis Activity measured as Glycerol (μM) release in media ([1]; 10 μg/ml) | Lipolytic activity measured as glycerol release ([3]; 120 min, listed as SEQ ID NO: 2) | Lipolytic activity measured as glycerol release ([3]; 240 min, listed as SEQ ID NO: 2) | Lipolysis Activity measured as Glycerol (μM) release in media ([2]; 25 μg/ml) | Lipolysis Activity measured as Glycerol (μM) release in media ([2]; 50 μg/ml) | Lipolysis Activity measured as Glycerol (μM) release in media ([2]; 75 μg/ml) | increase in lipolytic activity compared to the L version ([1]; D-decapeptide vs L version (SEQ ID NO: 2)) | Lipolytic activity measured as glycerol release ([3]; 120 min, listed as SEQ ID NO: 3) | Lipolytic activity measured as glycerol release ([3]; 240 min, listed as SEQ ID NO: 3) | fold more efficient in inducing lipolysis vs caffeine or SEQ ID NO:2 ([3]; time 120', 10 μg/ml) | fold more efficient in inducing lipolysis vs caffeine or SEQ ID NO:2 ([3]; time 240', 10 μg/ml)
1 | Cn1c(=O)c2c(ncn2C)n(C)c1=O [Caffeine] | 297 µM | 35.53 µM | neither caffeine nor the comparative peptide, at the same dose, provided any significant activity at that time | −3.0856 UM | 17.1602 UM |  |  |  |  |  |  |  |  |  |  |  | 
2 | TWDPEGVIFY [GP3L, comparative L-decapeptide; N-term NH2, C-term COOH, reference compound] | 360 µM |  |  |  |  | 230 µM | 250 µM | −0.5343 UM | 17.7363 UM |  |  |  |  |  |  |  | 
3 | NDPEGVIY (H-[dN][dD][dP][dE]G[dV][dI][dY]-OH; SMILES CC[C@@H](C)[C@@H](NC(=O)[C@H](NC(=O)CNC(=O)[C@@H](CCC(=O)O)NC(=O)[C@H]1CCCN1C(=O)[C@@H](CC(=O)O)NC(=O)[C@H](N)CC(N)=O)C(C)C)C(=O)N[C@H](Cc1ccc(O)cc1)C(=O)O) [GP3D-DM6, N-term NH2, C-term COOH] | 405 µM | 55.19 µM |  |  |  | 304 µM |  |  |  | 19.83 µM | 37.09 µM | 48.37 µM |  |  |  |  | 
4 | NDPEGLY (H-[dN][dD][dP][dE]G[dL][dY]-OH; SMILES CC(C)C[C@@H](NC(=O)CNC(=O)[C@@H](CCC(=O)O)NC(=O)[C@H]1CCCN1C(=O)[C@@H](CC(=O)O)NC(=O)[C@H](N)CC(N)=O)C(=O)N[C@H](Cc1ccc(O)cc1)C(=O)O) [GP3D-DM5, N-term NH2, C-term COOH] | 326 µM | 55.12 µM |  |  |  |  |  |  |  | 21.84 µM | 39.18 µM | 47.07 µM |  |  |  |  | 
5 | Ac-TWDPEGVIFY (Ac-[dT][dW][dD][dP][dE]G[dV][dI][dF][dY]) [GP3D-Ac, N-term CH3CONH, C-term COOH] | 498 µM | 58.41 µM |  |  |  | 354 µM | 388 µM |  |  | 16.56 µM | 36.41 µM | 43.36 µM |  |  |  |  | 
6 | DPEGVIY (H-[dD][dP][dE]G[dV][dI][dY]-OH; SMILES CC[C@@H](C)[C@@H](NC(=O)[C@H](NC(=O)CNC(=O)[C@@H](CCC(=O)O)NC(=O)[C@H]1CCCN1C(=O)[C@H](N)CC(=O)O)C(C)C)C(=O)N[C@H](Cc1ccc(O)cc1)C(=O)O) [GP3D-7 I II IX, N-term NH2, C-term COOH] | 346 µM | 56.08 µM |  |  |  | 417 µM | 380 µM |  |  | 19.68 µM | 34.01 µM | 46.62 µM |  |  |  |  | 
7 | TWDPEGVIFY [GP3D] ([dT][dW][dD][dP][dE]G[dV][dI][dF][dY]) [N-term NH2, C-term COOH] | 580 µM |  |  |  |  | 538 µM | 574 µM |  |  |  |  |  | about 2 fold | 24.8964 UM | 90.1603 UM | more than 24 fold | more than 5 fold
8 | DPEGVI (H-[dD][dP][dE]G[dV][dI]-OH; SMILES CC[C@@H](C)[C@@H](NC(=O)[C@H](NC(=O)CNC(=O)[C@@H](CCC(=O)O)NC(=O)[C@H]1CCCN1C(=O)[C@H](N)CC(=O)O)C(C)C)C(=O)O) [GP3D-6 I II IX X, N-term NH2, C-term COOH] | 368 µM | 53.13 µM |  |  |  | 326 µM | 300 µM |  |  | 17.01 µM | 40.79 µM | 43.36 µM |  |  |  |  | 
9 | WDPEGLY (H-[dW][dD][dP][dE]G[dL][dY]-OH; SMILES CC(C)C[C@@H](NC(=O)CNC(=O)[C@@H](CCC(=O)O)NC(=O)[C@H]1CCCN1C(=O)[C@@H](CC(=O)O)NC(=O)[C@H](N)Cc1c[nH]c2ccccc12)C(=O)N[C@H](Cc1ccc(O)cc1)C(=O)O) [GP3D-DM1, N-term NH2, C-term COOH] | 324 µM | 40.28 µM |  |  |  | 356 µM | 477 µM |  |  | 15.94 µM | 32.98 µM | 37.78 µM |  |  |  |  | 
10 | DPEGVIF (H-[dD][dP][dE]G[dV][dI][dF]-OH; SMILES CC[C@@H](C)[C@@H](NC(=O)[C@H](NC(=O)CNC(=O)[C@@H](CCC(=O)O)NC(=O)[C@H]1CCCN1C(=O)[C@H](N)CC(=O)O)C(C)C)C(=O)N[C@H](Cc1ccccc1)C(=O)O) [GP3D-7 I II X, N-term NH2, C-term COOH] | 313 µM | 58.31 µM |  |  |  | 391 µM | 405 µM |  |  | 17.04 µM | 34.80 µM | 48.09 µM |  |  |  |  | 
11 | WDPEGV (H-[dW][dD][dP][dE]G[dV]-OH; SMILES CC(C)[C@@H](NC(=O)CNC(=O)[C@@H](CCC(=O)O)NC(=O)[C@H]1CCCN1C(=O)[C@@H](CC(=O)O)NC(=O)[C@H](N)Cc1c[nH]c2ccccc12)C(=O)O) [GP3D-6 I VIII IX X, N-term NH2, C-term COOH] | 360 µM | 51.90 µM |  |  |  |  |  |  |  | 18.07 µM | 32.53 µM | 47.82 µM |  |  |  |  | 
